Among the data in BindingDB's records for doi:10.1016/j.bioorg.2015.10.003 (University of Technology Sydney, 2015) are IC50 and Ki values, retold here.

The assay concerns the target Polyphenol oxidase 1 [N65D,S176D,K211T,P277A,P406L] (Agaricus bisporus var. bisporus (strain H97 / ATCC MYA-4626 / FGSC 10389), UniProt Q00024, K211T/N65D/P277A/P406L/S176D). Nature of the assay: Enzymatic Activity Assay. The note with it: pH 6.8. The method, then: The mushroom tyrosinase inhibition activity of hydroxy naphthylchalcone compounds was measured using L-DOPA as substrate. The activity assay used 3 ml of reaction medium containing 0.5 mM L-DOPA in 50 mM Na2HPO4-NaH2PO4 buffer (pH 6.8). […] The substrate reaction progress curve was analyzed to obtain the reaction rate constants. The reaction was carried out at 30 °C and pH 6.8.
One may read the IC50 as the concentration needed to halve the response being measured. Lower therefore signals greater potency. In general, Ki refers to the equilibrium dissociation constant of an inhibitor or competing ligand from its target. Higher therefore signals lower affinity. Regarding `O=C(/C=C/c1ccc([N+](=O)[O-])cc1O)c1cc2ccccc2cc1O` [(2E)-1-(3-hydroxynaphthalen-2-yl)-3-(2-hydroxy-4-nitrophenyl) prop-2-en-1-one (3b)], the IC50 was 22.9 µM and the Ki is 11.2 µM.
Taken in the same sequence, the figures for `O=C(/C=C/c1ccc(O)c([N+](=O)[O-])c1)c1cc2ccccc2cc1O` [(2E)-1-(3-hydroxynaphthalen-2-yl)-3-(4-hydroxy-3-nitrophenyl) prop-2-en-1-one (4b)] were 25.6 µM and 11.9 µM.
On the same counts, the results for `O=C(/C=C/c1ccc(O)cc1O)c1cc2ccccc2cc1O` [(2E)-3-(2,4-dihydroxyphenyl)-1-(3-hydroxynaphthalen-2-yl) prop-2-en-1-one (2b)] are 14.4 µM and 4.5 µM.
Taken in the same sequence, the figures for `O=C(/C=C/c1cc(O)ccc1O)c1cc2ccccc2cc1O` [(2E)-3-(2,5-dihydroxyphenyl)-1-(3-hydroxynaphthalen-2-yl) prop-2-en-1-one (1b)] were 20.4 µM and 10.8 µM.
`O=C(/C=C/c1cc(O)cc(O)c1)c1cc2ccccc2cc1O` [(2E)-3-(3,5-dihydroxyphenyl)-1-(3-hydroxynaphthalen-2-yl)prop-2-en-1-one (5b)] returned an IC50 of 10.4 µM and an inhibitory constant (Ki) of 3.8 µM.
